# Activity calls are given as the source filed them. The calls are words filed in the database; no cut-off is given here.
# Legend:
# Malme-3M = test: Growth inhibition of human MALME-3M cells at 10 uM after 48 hrs by sulforhodamine B assay; type: functional; conditions: read-out: GI
# LOX IMVI = test: Growth inhibition of human LOXIMVI cells at 10 uM after 48 hrs by sulforhodamine B assay; type: functional; conditions: read-out: GI
# SNB-75 = test: Growth inhibition of human SNB75 cells at 10 uM after 48 hrs by sulforhodamine B assay; type: functional; conditions: SNB-75, 48 h, read-out: GI
# SF-539 = test: Growth inhibition of human SF539 cells at 10 uM after 48 hrs by sulforhodamine B assay; type: functional; conditions: SF-539, 48 h, read-out: GI
# SF-268 = test: Growth inhibition of human SF268 cells at 10 uM after 48 hrs by sulforhodamine B assay; type: functional; conditions: SF-268, 48 h, read-out: GI
# SW-620 = test: Growth inhibition of human SW620 cells at 10 uM after 48 hrs by sulforhodamine B assay; type: functional; conditions: SW-620, 48 h, read-out: GI
# HT-29 = test: Growth inhibition of human HT-29 cells at 10 uM after 48 hrs by sulforhodamine B assay; type: functional; conditions: HT-29, 48 h, read-out: GI
# HCT-15 = test: Growth inhibition of human HCT15 cells at 10 uM after 48 hrs by sulforhodamine B assay; type: functional; conditions: HCT-15, 48 h, read-out: GI
# HCT-116 = test: Growth inhibition of human HCT116 cells at 10 uM after 48 hrs by sulforhodamine B assay; type: functional; conditions: HCT-116, 48 h, read-out: GI
# COLO 205 = test: Growth inhibition of human COLO205 cells at 10 uM after 48 hrs by sulforhodamine B assay; type: functional
# NCI-H522 = test: Growth inhibition of human NCI-H522 cells at 10 uM after 48 hrs by sulforhodamine B assay; type: functional; conditions: NCI-H522, 48 h, read-out: GI
# NCI-H460 = test: Growth inhibition of human NCI-H460 cells at 10 uM after 48 hrs by sulforhodamine B assay; type: functional; conditions: NCI-H460, 48 h, read-out: GI
# NCI-H322M = test: Growth inhibition of human NCI-H322M cells at 10 uM after 48 hrs by sulforhodamine B assay; type: functional; conditions: read-out: GI
# NCI-H23 = test: Growth inhibition of human NCI-H23 cells at 10 uM after 48 hrs by sulforhodamine B assay; type: functional; conditions: NCI-H23, 48 h, read-out: GI
# HOP-62 = test: Growth inhibition of human HOP62 cells at 10 uM after 48 hrs by sulforhodamine B assay; type: functional; conditions: HOP-62, 48 h, read-out: GI
# SR = test: Growth inhibition of human SR cells at 10 uM after 48 hrs by sulforhodamine B assay; type: functional; conditions: read-out: GI
# RPMI-8226 = test: Growth inhibition of human RPMI8226 cells at 10 uM after 48 hrs by sulforhodamine B assay; type: functional; conditions: RPMI-8226, 48 h, read-out: GI
# MOLT-4 = test: Growth inhibition of human MOLT4 cells at 10 uM after 48 hrs by sulforhodamine B assay; type: functional; conditions: MOLT-4, 48 h, read-out: GI
# HL-60(TB) = test: Growth inhibition of human HL-60(TB) cells at 10 uM after 48 hrs by sulforhodamine B assay; type: functional; conditions: HL-60, 48 h, read-out: GI
# CCRF-CEM = test: Growth inhibition of human CCRF-CEM cells at 10 uM after 48 hrs by sulforhodamine B assay; type: functional; conditions: read-out: GI
# Carbonic anhydrase 9 = Carbonic anhydrase 9 (Homo sapiens, UniProt Q16790); test: Inhibition of human carbonic anhydrase 9 after 15 mins by stopped flow CO2 hydration assay
# Hs-578T = test: Growth inhibition of human Hs 578T cells at 10 uM after 48 hrs by sulforhodamine B assay; type: functional
# MDA-MB-231 = test: Growth inhibition of human MDA-MB-231 cells at 10 uM after 48 hrs by sulforhodamine B assay; type: functional; conditions: MDA-MB-231, 48 h, read-out: GI
# MCF7 = test: Growth inhibition of human MCF7 cells at 10 uM after 48 hrs by sulforhodamine B assay; type: functional; conditions: MCF7, 48 h, read-out: GI
# DU-145 = test: Growth inhibition of human DU145 cells at 10 uM after 48 hrs by sulforhodamine B assay; type: functional; conditions: DU-145, 48 h, read-out: GI
# PC-3 = test: Growth inhibition of human PC3 cells at 10 uM after 48 hrs by sulforhodamine B assay; type: functional; conditions: PC-3, 48 h, read-out: GI
# UO-31 = test: Growth inhibition of human UO31 cells at 10 uM after 48 hrs by sulforhodamine B assay; type: functional; conditions: UO-31, 48 h, read-out: GI
# TK-10 = test: Growth inhibition of human TK10 cells at 10 uM after 48 hrs by sulforhodamine B assay; type: functional; conditions: TK-10, 48 h, read-out: GI
# SN12C = test: Growth inhibition of human SN12C cells at 10 uM after 48 hrs by sulforhodamine B assay; type: functional; conditions: read-out: GI
# RXF 393 = test: Growth inhibition of human RXF393 cells at 10 uM after 48 hrs by sulforhodamine B assay; type: functional; conditions: RXF 393, 48 h, read-out: GI
# CAKI-1 = test: Growth inhibition of human CAKI-1 cells at 10 uM after 48 hrs by sulforhodamine B assay; type: functional; conditions: CAKI-1, 48 h, read-out: GI
# ACHN = test: Growth inhibition of human ACHN cells at 10 uM after 48 hrs by sulforhodamine B assay; type: functional; conditions: read-out: GI
# A498 = test: Growth inhibition of human A498 cells at 10 uM after 48 hrs by sulforhodamine B assay; type: functional; conditions: A498, 48 h, read-out: GI
# 786-0 = test: Growth inhibition of human 786-0 cells at 10 uM after 48 hrs by sulforhodamine B assay; type: functional; conditions: 786-0, 48 h, read-out: GI
# OVCAR-5 = test: Growth inhibition of human OVCAR5 cells at 10 uM after 48 hrs by sulforhodamine B assay; type: functional; conditions: OVCAR-5, 48 h, read-out: GI
# OVCAR-3 = test: Growth inhibition of human OVCAR3 cells at 10 uM after 48 hrs by sulforhodamine B assay; type: functional; conditions: OVCAR-3, 48 h, read-out: GI
# IGROV-1 = test: Growth inhibition of human IGROV1 cells at 10 uM after 48 hrs by sulforhodamine B assay; type: functional; conditions: IGROV-1, 48 h, read-out: GI
# UACC-62 = test: Growth inhibition of human UACC62 cells at 10 uM after 48 hrs by sulforhodamine B assay; type: functional; conditions: UACC-62, 48 h, read-out: GI
# SK-MEL-28 = test: Growth inhibition of human SK-MEL-28 cells at 10 uM after 48 hrs by sulforhodamine B assay; type: functional, cell-based
# SK-MEL-2 = test: Growth inhibition of human SK-MEL-2 cells at 10 uM after 48 hrs by sulforhodamine B assay; type: functional; conditions: SK-MEL-2, 48 h, read-out: GI
# M14 = test: Growth inhibition of human M14 cells at 10 uM after 48 hrs by sulforhodamine B assay; type: functional; conditions: M14, 48 h, read-out: GI
structure (smiles),measurement,setting,value
NS(=O)(=O)c1cnccc1N1CCN(c2ccc(Cl)c(Cl)c2)CC1,inhibition of growth at 10 µM,Malme-3M,24%
same,inhibition of growth at 10 µM,LOX IMVI,19%
same,inhibition of growth at 10 µM,SNB-75,3%
same,inhibition of growth at 10 µM,SF-539,16%
same,inhibition of growth at 10 µM,SF-268,2%
same,inhibition of growth at 10 µM,SW-620,3%
same,inhibition of growth at 10 µM,HT-29,29%
same,inhibition of growth at 10 µM,HCT-15,27%
same,inhibition of growth at 10 µM,HCT-116,35%
same,growth inhibition (GI),COLO 205,inactive
same,inhibition of growth at 10 µM,NCI-H522,43%
same,inhibition of growth at 10 µM,NCI-H460,16%
same,inhibition of growth at 10 µM,NCI-H322M,18%
same,inhibition of growth at 10 µM,NCI-H23,33%
same,inhibition of growth at 10 µM,HOP-62,1%
same,inhibition of growth at 10 µM,SR,35%
same,inhibition of growth at 10 µM,RPMI-8226,47%
same,inhibition of growth at 10 µM,MOLT-4,39%
same,inhibition of growth at 10 µM,HL-60(TB),18%
same,inhibition of growth at 10 µM,CCRF-CEM,47%
same,Ki,Carbonic anhydrase 9,341 nM
same,growth inhibition (GI),Hs-578T,inactive
same,inhibition of growth at 10 µM,MDA-MB-231,21%
same,inhibition of growth at 10 µM,MCF7,37%
same,inhibition of growth at 10 µM,DU-145,7%
same,inhibition of growth at 10 µM,PC-3,35%
same,inhibition of growth at 10 µM,UO-31,31%
same,inhibition of growth at 10 µM,TK-10,9%
same,inhibition of growth at 10 µM,SN12C,17%
same,inhibition of growth at 10 µM,RXF 393,8%
same,inhibition of growth at 10 µM,CAKI-1,36%
same,inhibition of growth at 10 µM,ACHN,24%
same,inhibition of growth at 10 µM,A498,12%
same,inhibition of growth at 10 µM,786-0,15%
same,inhibition of growth at 10 µM,OVCAR-5,1%
same,inhibition of growth at 10 µM,OVCAR-3,30%
same,inhibition of growth at 10 µM,IGROV-1,31%
same,inhibition of growth at 10 µM,UACC-62,38%
same,growth inhibition (GI),SK-MEL-28,inactive
same,inhibition of growth at 10 µM,SK-MEL-2,16%
same,inhibition of growth at 10 µM,M14,22%
